Measurements from patent publication US10034915B2, “Small heat shock proteins and active fragments thereof as a therapy for inflammation and ischemia” (The Board of Trustees of the Leland Stanford Junior …, priority 2011, dated 2018).
“Also recorded” adds a separate entry of the source.

Assays:
Assay type in all cases: in vivo, mouse
mice with EAE = assay: EAE in C57BL/6J mice (MOG35-55/CFA, pertussis toxin), neurological impairment scoring
Procedure: It was tested if the chaperone function of residues 73-92 of HspB5 were capable of reducing the symptoms of experimental allergic encephalomyelist (EAE), by inducing EAE in 9-week old female C57BL/6J by immunized subcutaneously with an emulsion containing 200 μg myelin oligodendrocyte glycoprotein 35-55 (MOG35-55; […] (SEQ ID NO:24)) in saline and an equal volume of complete Freund's adjuvant. Intraperitoneal injection of pertussis toxin at 0 and 48 h post-immunization results in paralysis beginning at day 12.

stroke in Cryab−/− mice = assay: Cerebral ischemia (middle cerebral artery occlusion) in Cryab−/− mice, lesion size by silver stain; conditions: IP 1 h before stroke, 12 h, 24 h and daily for seven days, vs PBS treated Cryab−/−
Procedure: To test if increased plasma Cryab after stroke was beneficial, Cryab^−/− mice were given intraperitoneal injections of recombinant Cryab protein starting 1 h before stroke onset and continuing at 12 h, 24 h and daily afterwards for seven days in total.
Induction of cerebral ischemia. We used 12 to 14-week-old, male mice weighing 25-30 g. The weights of the animals in all experimental groups were similar. We used filament occlusion model of cerebral ischemia as described. Briefly, mice were anesthetized with 2% isoflurane in a mixture of 20% oxygen and 80% air. After the surgical exposure, the left external and common carotid arteries were permanently ligated. Then, a 7-0 mm, silicon rubber-coated, reusable monofilament (Doccol Inc, 70SPRe2045) was inserted into the left common carotid artery and advanced towards the left internal carotid artery 9-10 mm after the left carotid bifurcation. The core body temperature was checked by a rectal probe and maintained at 37° C. throughout the surgery by a heating pad and lamp. The cerebral blood flow was measured by a laser Doppler flow-meter and at least 80% reduction compared to presurgical baseline values was achieved after the insertion of the filament. The flowmeter probe was placed 2 mm posterior and 5-6 mm lateral to the bregma on the skull. The reperfusion was achieved by withdrawal of the filament 30 min after the insertion. […]

[1] = system: splenocytes stimulated with concanavalin A or LPS; assay: Splenocyte cytokine response at 7 d after stroke, wild-type mice; conditions: vs PBS
Procedure: Effects of Cryab treatment on immune system. The effects of Cryab treatment on the splenocyte cytokine response were assessed at 7 d after stroke in wild-type mice. The total number of splenocytes in PBS and Cryab treated mice was equivalent at 7 d after stroke (data not shown). When stimulated by concanavalin A, splenocytes from Cryab treated mice produced fewer pro-inflammatory IL-2, IL-17, IFN-g, IL-12p40, IL-6 and more anti-inflammatory IL-10 than the splenocytes from PBS treated mice (FIG. 14d-i). When stimulated by LPS, Cryab-treated mice splenocytes produced fewer pro-inflammatory IL-6 and TNF than the splenocytes from PBS-treated mice (FIG. 14j, k).

αB-crystallin [HSPB5]
clinical paralysis / clinical scores of mice with EAE (mice with EAE; intraperitoneal 10-50 μg every other day starting at the peak of disease): significant reduction of clinical paralysis
symptoms of EAE (mice with EAE; intravenous administration): dramatic reduction of symptoms
symptoms after cessation of the administration (mice with EAE; mouse, in vivo): returned soon after cessation
lesion size at 7 d after stroke (stroke in Cryab−/− mice): significantly decreased; also recorded: confers neuroprotection
IL-6 production by splenocytes ([1]; LPS stimulation): fewer
TNF production by splenocytes ([1]; LPS stimulation): fewer
IFN-g production by splenocytes ([1]; concanavalin A stimulation): fewer
IL-2 production by splenocytes ([1]; concanavalin A stimulation): fewer
IL-6 production by splenocytes ([1]; concanavalin A stimulation): fewer
IL-10 production by splenocytes ([1]; concanavalin A stimulation): more
IL-12p40 production by splenocytes ([1]; concanavalin A stimulation): fewer
IL-17 production by splenocytes ([1]; concanavalin A stimulation): fewer
total number of splenocytes [1]: equivalent
